Reference: PubChem BioAssay (NCI)
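The concentration for 50% growth inhibition is given as GI50. The concentration for full growth arrest is given as TGI.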

Columns and labels:
Test in all cases: NCI-60 cell line screen, 384-well format
[1] = tested on: SK-MEL-28 melanoma
[2] = tested on: A498 renal
[3] = tested on: HT29 colon
[4] = tested on: MDA-MB-435 melanoma
[5] = tested on: 786-0 renal
[6] = tested on: SNB-75 CNS
[7] = tested on: T-47D breast
[8] = tested on: CCRF-CEM leukemia
[9] = tested on: NCI-H322M lung
[10] = tested on: NCI-H23 lung
[11] = tested on: HOP-92 NSCLC
[12] = tested on: COLO 205 colon
[13] = tested on: UACC-257 melanoma
[14] = tested on: SF-295 CNS
[15] = tested on: SR leukemia
[16] = tested on: UO-31 renal
[17] = tested on: M14 melanoma
[18] = tested on: IGROV1 ovarian
[19] = tested on: MDA-MB-231 breast
[20] = tested on: SK-MEL-5 melanoma
[21] = tested on: NCI-H460 NSCLC
[22] = tested on: SNB-19 CNS
[23] = tested on: PC-3 prostate
[24] = tested on: CAKI-1 renal
[25] = tested on: BT-549 breast
[26] = tested on: HL-60(TB) leukemia
[27] = tested on: UACC-62 melanoma
[28] = tested on: HS 578T breast
[29] = tested on: NCI-H522 lung
[30] = tested on: KM12 colon
[31] = tested on: OVCAR-8 ovarian
[32] = tested on: MOLT-4 leukemia
[33] = tested on: K-562 leukemia
[34] = tested on: OVCAR-3 ovarian
[35] = tested on: MALME-3M melanoma
[36] = tested on: SK-OV-3 ovarian
[37] = tested on: MDA-MB-468 breast
[38] = tested on: RPMI-8226 leukemia
[39] = tested on: HCT-15 colon
[40] = tested on: RXF 393 renal
[41] = tested on: ACHN renal
[42] = tested on: SF-539 CNS
[43] = tested on: A549 NSCLC
[44] = tested on: SN12C renal
[45] = tested on: DU-145 prostate
[46] = tested on: HOP-62 NSCLC
[47] = tested on: NCI/ADR-RES ovarian
[48] = tested on: NCI-H226 lung
[49] = tested on: OVCAR-4 ovarian
[50] = tested on: HCC-2998 colon
[51] = tested on: MCF7 breast
[52] = tested on: EKVX NSCLC
[53] = tested on: TK-10 renal
[54] = tested on: SF-268 CNS
[55] = tested on: LOX IMVI melanoma
[56] = tested on: OVCAR-5 ovarian
[57] = tested on: SW-620 colon

Molecule Cc1cc2ncnn2cc1Nc1ncc2c(n1)n(C1CCOCC1)c(=O)n2C has a GI50 [1] of 22.4 µM, a TGI [1] greater than 100 µM and a GI50 [2] of 2.66 µM. For the same molecule, the TGI [2] was 31.3 µM, the GI50 [3] was 32.9 µM and the TGI [3] was greater than 100 µM. It also gave a GI50 [4] of 41.4 µM, a TGI [4] greater than 100 µM and a GI50 [5] of 36.4 µM. The TGI [5] was greater than 100 µM, the GI50 [6] was 6.38 µM and the TGI [6] was greater than 100 µM. For the same molecule, the GI50 [7] was 1.7 µM, the TGI [7] was 7.63 µM and the GI50 [8] was 3.21 µM. It also gave a TGI [8] of 17.5 µM, a GI50 [9] of 18.8 µM and a TGI [9] greater than 100 µM. For the same molecule, the GI50 [10] was 26.5 µM, the TGI [10] was greater than 100 µM and the GI50 [11] was 6.69 µM. It also gave a TGI [11] greater than 100 µM, a GI50 [12] of 17.1 µM and a TGI [12] greater than 100 µM. For the same molecule, the GI50 [13] was greater than 100 µM, the TGI [13] was greater than 100 µM and the GI50 [14] was 6.33 µM. The TGI [14] was greater than 100 µM, the GI50 [15] was 4.11 µM and the TGI [15] was greater than 100 µM. The GI50 [16] was greater than 100 µM, the TGI [16] was greater than 100 µM and the GI50 [17] was 19.3 µM. It also gave a TGI [17] greater than 100 µM, a GI50 [18] of 4.91 µM and a TGI [18] of 32.9 µM. It also gave a GI50 [19] of 7.65 µM, a TGI [19] greater than 100 µM and a GI50 [20] of 15.5 µM. For the same molecule, the TGI [20] was greater than 100 µM, the GI50 [21] was 4.88 µM and the TGI [21] was greater than 100 µM. For the same molecule, the GI50 [22] was greater than 100 µM, the TGI [22] was greater than 100 µM and the GI50 [23] was 8.76 µM. The TGI [23] was greater than 100 µM, the GI50 [24] was 16.5 µM and the TGI [24] was greater than 100 µM. It also gave a GI50 [25] of 24.2 µM, a TGI [25] greater than 100 µM and a GI50 [26] of 35.2 µM. The TGI [26] was greater than 100 µM, the GI50 [27] was 21.2 µM and the TGI [27] was greater than 100 µM. The GI50 [28] was 4.78 µM, the TGI [28] was 37.9 µM and the GI50 [29] was 9.5 µM. It also gave a TGI [29] greater than 100 µM, a GI50 [30] of 18 µM and a TGI [30] greater than 100 µM. For the same molecule, the GI50 [31] was 50.5 µM, the TGI [31] was greater than 100 µM and the GI50 [32] was 5.53 µM. It also gave a TGI [32] of 33.8 µM, a GI50 [33] greater than 100 µM and a TGI [33] greater than 100 µM. The GI50 [34] was 14.5 µM, the TGI [34] was greater than 100 µM and the GI50 [35] was 4.21 µM. For the same molecule, the TGI [35] was 61.9 µM, the GI50 [36] was 6.16 µM and the TGI [36] was greater than 100 µM. For the same molecule, the GI50 [37] was 5.36 µM, the TGI [37] was 52.7 µM and the GI50 [38] was 1.44 µM. The TGI [38] was 3.98 µM, the GI50 [39] was 12 µM and the TGI [39] was greater than 100 µM. It also gave a GI50 [40] of 49.6 µM, a TGI [40] greater than 100 µM and a GI50 [41] of 21.5 µM. The TGI [41] was greater than 100 µM, the GI50 [42] was 58.2 µM and the TGI [42] was greater than 100 µM. For the same molecule, the GI50 [43] was 12.1 µM, the TGI [43] was greater than 100 µM and the GI50 [44] was 10.4 µM. For the same molecule, the TGI [44] was greater than 100 µM, the GI50 [45] was 28.8 µM and the TGI [45] was greater than 100 µM. The GI50 [46] was 22.2 µM, the TGI [46] was greater than 100 µM and the GI50 [47] was greater than 100 µM. The TGI [47] was greater than 100 µM, the GI50 [48] was 10.5 µM and the TGI [48] was greater than 100 µM. It also gave a GI50 [49] of 8.13 µM, a TGI [49] greater than 100 µM and a GI50 [50] of 38.2 µM. It also gave a TGI [50] greater than 100 µM, a GI50 [51] of 4.64 µM and a TGI [51] greater than 100 µM. The GI50 [52] was 15.6 µM, the TGI [52] was greater than 100 µM and the GI50 [53] was 74.7 µM. The TGI [53] was greater than 100 µM, the GI50 [54] was greater than 100 µM and the TGI [54] was greater than 100 µM. The GI50 [55] was 14.4 µM, the TGI [55] was greater than 100 µM and the GI50 [56] was 11.9 µM. The TGI [56] was greater than 100 µM, the GI50 [57] was greater than 100 µM and the TGI [57] was greater than 100 µM.
